In ChEMBL document CHEMBL1135136, “Carbonic anhydrase inhibitors. Preparation of potent sulfonamides inhibitors incorporating bile acid tails” (Bioorg Med Chem Lett, 2002) one finds Ki data, which are given here for 24 molecules.

One experiment has as its target T1, Carbonic anhydrase 4 (Bos taurus, UniProt Q95323).
T1 sequence (Q95323 whole entry): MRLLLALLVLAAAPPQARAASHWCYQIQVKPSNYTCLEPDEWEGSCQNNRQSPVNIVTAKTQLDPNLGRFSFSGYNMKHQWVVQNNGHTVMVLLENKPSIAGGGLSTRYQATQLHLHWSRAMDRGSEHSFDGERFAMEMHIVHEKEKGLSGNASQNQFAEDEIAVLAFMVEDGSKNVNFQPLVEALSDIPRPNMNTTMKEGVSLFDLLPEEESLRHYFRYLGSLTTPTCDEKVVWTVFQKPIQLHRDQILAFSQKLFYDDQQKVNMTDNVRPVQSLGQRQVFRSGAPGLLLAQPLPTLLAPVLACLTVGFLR

The next experiment concerns the target Carbonic anhydrase 1 (Homo sapiens, UniProt P00915).
Another experiment addresses Carbonic anhydrase 2 (Homo sapiens, UniProt P00918).

pKi: −log10 of the molar value.

Chain of Carbonic anhydrase 1 (P00915 whole entry): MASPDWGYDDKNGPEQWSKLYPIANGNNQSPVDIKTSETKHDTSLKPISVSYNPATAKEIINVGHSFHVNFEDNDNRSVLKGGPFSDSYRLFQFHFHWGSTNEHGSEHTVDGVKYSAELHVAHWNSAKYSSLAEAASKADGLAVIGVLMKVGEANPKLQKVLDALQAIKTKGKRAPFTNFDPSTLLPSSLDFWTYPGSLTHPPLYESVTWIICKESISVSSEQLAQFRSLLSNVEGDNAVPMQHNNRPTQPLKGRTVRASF
Description for Carbonic anhydrase 1: Inhibitory activity against human recombinant carbonic anhydrase I (CA1)
Description for Carbonic anhydrase 2: Inhibitory activity against human recombinant carbonic anhydrase II (CA2)
Description for Carbonic anhydrase 4: Inhibitory activity against bovine carbonic anhydrase IV (CA4), obtained from bovine lung microsomes

Usually pKi stands for the negative decadic logarithm of the Ki, by convention in mol/L. With `C[C@H](CCC(=O)OCc1ccc(S(N)(=O)=O)cc1)[C@H]1CC[C@H]2[C@@H]3[C@H](O)C[C@@H]4C[C@H](O)CC[C@]4(C)[C@H]3C[C@H](O)[C@]12C`, the results for the pKi at Carbonic anhydrase 4, at Carbonic anhydrase 1 and on Carbonic anhydrase 2 were 6.55, 5.92 and 7.01, respectively.
Take `C[C@H](CCC(=O)NCCC(=O)Nc1nnc(S(N)(=O)=O)s1)[C@H]1CC[C@H]2[C@@H]3CC[C@@H]4C[C@H](O)CC[C@]4(C)[C@H]3CC[C@]12C`: the pKi on Carbonic anhydrase 4 is 7.72; at Carbonic anhydrase 1, 6.70; at Carbonic anhydrase 2 it was 8.68.
For `C[C@H](CCC(=O)Nc1c(S(N)(=O)=O)cc(S(N)(=O)=O)c(Cl)c1Cl)[C@H]1CC[C@H]2[C@@H]3CC[C@@H]4C[C@H](O)CC[C@]4(C)[C@H]3CC[C@]12C`, the results for the pKi at Carbonic anhydrase 4, at Carbonic anhydrase 1 and at Carbonic anhydrase 2 were 7.06, 6.89 and 7.77, respectively.
The like results for `C[C@H](CCC(=O)Nc1c(S(N)(=O)=O)cc(S(N)(=O)=O)c(Cl)c1Cl)[C@H]1CC[C@H]2[C@@H]3CC[C@@H]4C[C@H](O)CC[C@]4(C)[C@H]3C[C@H](O)[C@]12C` were, in that order, 7.00, 6.55 and 7.70.
The corresponding values for `C[C@H](CCC(=O)Nc1ccc(S(N)(=O)=O)cc1I)[C@H]1CC[C@H]2[C@@H]3[C@H](O)C[C@@H]4C[C@H](O)CC[C@]4(C)[C@H]3CC[C@]12C` are 6.96, 6.28 and 7.26.
As to `C[C@H](CCC(=O)NNc1ccc(S(N)(=O)=O)cc1)[C@H]1CC[C@H]2[C@@H]3CC[C@@H]4C[C@H](O)CC[C@]4(C)[C@H]3CC[C@]12C`, the pKi at Carbonic anhydrase 4 is 6.19; at Carbonic anhydrase 1, 4.82; on Carbonic anhydrase 2, 6.55.
The like results for `C[C@H](CCC(=O)Oc1ccc2nc(S(N)(=O)=O)sc2c1)[C@H]1CC[C@H]2[C@@H]3[C@@H](O)C[C@@H]4C[C@H](O)CC[C@]4(C)[C@H]3CC[C@]12C` were, in that order, 8.22, 7.51 and 9.15.
Regarding `C[C@H](CCC(=O)Nc1cc(Cl)c(S(N)(=O)=O)cc1S(N)(=O)=O)[C@H]1CC[C@H]2[C@@H]3[C@@H](O)C[C@@H]4C[C@H](O)CC[C@]4(C)[C@H]3CC[C@]12C`, the pKi is 7.34 on Carbonic anhydrase 4, 7.15 at Carbonic anhydrase 1 and 8.05 at Carbonic anhydrase 2.
The corresponding values for `C[C@H](CCC(=O)Nc1cc(Cl)c(S(N)(=O)=O)cc1S(N)(=O)=O)[C@H]1CC[C@H]2[C@@H]3CC[C@@H]4C[C@H](O)CC[C@]4(C)[C@H]3C[C@H](O)[C@]12C` are 6.92, 6.65 and 7.26.
The like results for `C[C@H](CCC(=O)OCCOc1ccc2nc(S(N)(=O)=O)sc2c1)[C@H]1CC[C@H]2[C@@H]3[C@@H](O)C[C@@H]4C[C@H](O)CC[C@]4(C)[C@H]3CC[C@]12C` were, in that order, 8.30, 7.52 and 9.22.
The like results for `C[C@H](CCC(=O)Nc1nnc(S(N)(=O)=O)s1)[C@H]1CC[C@H]2[C@@H]3[C@H](O)C[C@@H]4C[C@H](O)CC[C@]4(C)[C@H]3CC[C@]12C` were, in that order, 6.62, 6.39 and 7.28.
For the molecule `C[C@H](CCC(=O)NCCc1ccc(S(N)(=O)=O)cc1)[C@H]1CC[C@H]2[C@@H]3CC[C@@H]4C[C@H](O)CC[C@]4(C)[C@H]3C[C@H](O)[C@]12C`, the pKi at Carbonic anhydrase 4 was 6.61; on Carbonic anhydrase 1 it was 5.82; on Carbonic anhydrase 2 it was 7.11.
As to `C[C@H](CCC(=O)Nc1ccc2nc(S(N)(=O)=O)sc2c1)[C@H]1CC[C@H]2[C@@H]3[C@H](O)C[C@@H]4C[C@H](O)CC[C@]4(C)[C@H]3C[C@H](O)[C@]12C`, the pKi was 8.00 at Carbonic anhydrase 4, 7.46 at Carbonic anhydrase 1 and 8.30 on Carbonic anhydrase 2.
`C[C@H](CCC(=O)NCc1ccc(S(N)(=O)=O)cc1)[C@H]1CC[C@H]2[C@@H]3[C@H](O)C[C@@H]4C[C@H](O)CC[C@]4(C)[C@H]3CC[C@]12C`: the pKi on Carbonic anhydrase 4 is 6.61; on Carbonic anhydrase 1, 5.46; at Carbonic anhydrase 2, 7.02.
The like results for `C[C@H](CCC(=O)OCc1ccc(S(N)(=O)=O)cc1)[C@H]1CC[C@H]2[C@@H]3[C@@H](O)C[C@@H]4C[C@H](O)CC[C@]4(C)[C@H]3CC[C@]12C` were, in that order, 6.61, 6.30 and 7.12.
The corresponding values for `C[C@H](CCC(=O)OCc1ccc(S(N)(=O)=O)cc1)[C@H]1CC[C@H]2[C@@H]3[C@H](O)C[C@@H]4C[C@H](O)CC[C@]4(C)[C@H]3CC[C@]12C` are 6.47, 5.91 and 7.01.
The like results for `C[C@H](CCC(=O)Nc1c(S(N)(=O)=O)cc(S(N)(=O)=O)c(Cl)c1Cl)[C@H]1CC[C@H]2[C@@H]3C(=O)C[C@@H]4CC(=O)CC[C@]4(C)[C@H]3CC(=O)[C@]12C` were, in that order, 7.62, 7.35 and 8.05.
As for `C[C@H](CCC(=O)Nc1cccc(S(N)(=O)=O)c1)[C@H]1CC[C@H]2[C@@H]3[C@@H](O)C[C@@H]4C[C@H](O)CC[C@]4(C)[C@H]3CC[C@]12C`, the pKi is 6.32 at Carbonic anhydrase 4, 5.15 on Carbonic anhydrase 1 and 6.80 at Carbonic anhydrase 2.
For the molecule `C[C@H](CCC(=O)NNc1ccc(S(N)(=O)=O)cc1)[C@H]1CC[C@H]2[C@@H]3[C@H](O)C[C@@H]4C[C@H](O)CC[C@]4(C)[C@H]3C[C@H](O)[C@]12C`, the pKi is 5.98 on Carbonic anhydrase 4, 4.49 on Carbonic anhydrase 1 and 6.50 at Carbonic anhydrase 2.
The like results for `C[C@H](CCC(=O)OCCOc1ccc2nc(S(N)(=O)=O)sc2c1)[C@H]1CC[C@H]2[C@@H]3CC[C@@H]4C[C@H](O)CC[C@]4(C)[C@H]3CC[C@]12C` were, in that order, 8.10, 7.44 and 8.85.
The like results for `C[C@H](CCC(=O)NCCc1ccc(S(N)(=O)=O)cc1)[C@H]1CC[C@H]2[C@@H]3[C@H](O)C[C@@H]4C[C@H](O)CC[C@]4(C)[C@H]3CC[C@]12C` were, in that order, 6.63, 5.48 and 7.07.
The like results for `C[C@H](CCC(=O)NCc1ccc(S(N)(=O)=O)cc1)[C@H]1CC[C@H]2[C@@H]3CC[C@@H]4C[C@H](O)CC[C@]4(C)[C@H]3C[C@H](O)[C@]12C` were, in that order, 6.63, 5.77 and 7.10.
`C[C@H](CCC(=O)Nc1cccc(S(N)(=O)=O)c1)[C@H]1CC[C@H]2[C@@H]3[C@H](O)C[C@@H]4C[C@H](O)CC[C@]4(C)[C@H]3C[C@H](O)[C@]12C`: the pKi at Carbonic anhydrase 4 was 5.87; at Carbonic anhydrase 1, 4.64; at Carbonic anhydrase 2, 6.66.
Consider `C[C@H](CCC(=O)NCCC(=O)Nc1nnc(S(N)(=O)=O)s1)[C@H]1CC[C@H]2[C@@H]3C(=O)C[C@@H]4CC(=O)CC[C@]4(C)[C@H]3CC(=O)[C@]12C`, for which the values for the pKi at Carbonic anhydrase 4, on Carbonic anhydrase 1 and at Carbonic anhydrase 2 were 8.15, 7.66 and 8.96, respectively.
